From patent publication US12649748B2, “Wee1 inhibitor and use thereof” (JIANGSU TASLY DIYI PHARMACEUTICAL CO., LTD., priority 2021, dated 2026) come the findings set out here.

For one series, the system named is MIA Paca-2 cells. As to the kind of experiment: Anti-proliferative effect by Cell Titer-Glo, MIA Paca-2. The format is cell-based. To be noted: Homo sapiens, read-out: IC50 measured value MIA Paca-2. The method in brief: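 Cells exposed to 9-point serial dilutions (duplicates, 0.2% DMSO final) for 3 days at 37 °C, 5% CO2. Viability by CellTiter-Glo luminescence; inhibition normalised to untreated-cell and medium controls, IC50 from variable-slope log(inhibitor)–response fit.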

Series [1] in a line: Plasma protein binding (PPB), mouse. The format is in vitro ADME. As to conditions: 5 h dialysis, read-out: Plasma protein binding rate (%) Mouse (converted). The procedure: (§1) Sample preparation: The compound was dissolved in DMSO to a stock solution of 10 mM, then the compound was diluted with PBS to a secondary stock solution of 0.02 mM, and then the above 0.02 mM was diluted to 1 μM using blank plasma, which was the sample to be incubated.
(§2) Dialysis set-up preparation: 400 μL of blank PBS was first added to the white wells of the equilibrated dialysis plate and 200 μL of the configured plasma sample was added to the red wells, and the dialysis plate was sealed with a sealing film.
(§3) Recovery plate preparation: Two 96-well deep-well plates, labelled T0 and T5, were prepared and all plasma samples were added at n=2. 300 μL of acetonitrile (Verapamil-HCl, 4 ng/mL) was added directly to the TO plate, followed by 50 μL of blank PBS mix well for 5 min and left to stand in a 4° C. refrigerator until the end of the incubation.
(§4) Experimental Operation: The dialysis device and the T5 plate were incubated together for 5 h in a microplate thermostatic shaker (37° C., using 300 rpm or minimum speed). At the end of the incubation, 300 μL of acetonitrile (Verapamil-HCl, 4 ng/mL) was added and 50 μL of PBS solution was added. At the end of the dialysis incubation, a new 96-well deep well plate was taken. Add 50 μL of plasma well sample to the corresponding position of the 96-well plate, 300 μL of acetonitrile and 50 μL of blank PBS; take 50 μL of buffer well sample to the corresponding position of the 96-well plate, then add 300 μL of acetonitrile and 50 μL of blank plasma. Add 300 μL of acetonitrile (Verapamil-HCl, 4 ng/mL) to the plasma-containing wells of the T5 plate, and then 50 μL of PBS solution was added. Shake for 5 min to fully precipitate the proteins and centrifuge at 20,000 g for 10 min at 4° C. Add 200 μL of supernatant to 200 μL of pure water, mix well and perform LC-MS/MS analysis.
(§5) 2. Data Processing and Parameter Calculation Plasma protein binding rate=[(Rpe−Rb)/Rpe]×100% Recovery=[(Rpe+Rb)/R5h]×100% Stability=(R5/R0)×100% where • Rpe=ratio of plasma-side testing sample peak area to internal standard • Rb=ratio of buffer side testing sample peak area to internal standard • R5=ratio of incubator stability sample peak area to internal standard • R0=ratio of refrigerator stability sample peak area to internal standard 3.

Series [2] can be described thus: Plasma protein binding (PPB), rat. The format is in vitro ADME. As to conditions: 5 h dialysis, read-out: Plasma protein binding rate (%) Rat (converted). The procedure: as §1, §2, §3, §4, §5
The target of a further series is T1, Wee1 protein (Homo sapiens, UniProt P30291).
T1 construct: purchased Thermo Fisher PR7373A
As to the kind of experiment: Binding of compound to Wee1 protein and Tracer 178 by TR-FRET. As to conditions: inhibitory activity against Wee1 kinase, read-out: IC50 measured value. The method in brief:
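TR-FRET tracer displacement: WEE1 (15 nM) with compound, Tracer 178 (50 nM) and anti-GST-Eu cryptate (2 nM) in 50 mM HEPES pH 7.5, 10 mM MgCl2, 1 mM EGTA, 0.01% Brij-35, 0.25% DMSO, 60 min at 25 °C. 665/620 nm emission read; IC50 from variable-slope fit.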
(In general: TR-FRET usually uses a lanthanide donor and a delayed reading to cut background.)

For another series, the target named is CYP2C9 (Homo sapiens, UniProt P11712). As to the kind of experiment: Inhibition of cytochrome P450, CYP2C9. To be noted: CYP2C9 enzyme, pH 7.4, probe BOMCC, read-out: CYP inhibition/% 2C9; for inhibition at 30 min, 1 µM: compound concentration 1 μM; for inhibition at 30 min, 10 µM: compound concentration 10 μM. The format is in vitro ADME. The procedure:
Enzymatic experiments were performed to quantify the inhibition of CYP450 enzyme activity of each isoform of CYP450 by small molecule inhibitors through fluorescence generated by the oxidation of the substrate by cytochrome P450. […] The Solution B composition used for the experiment was: 40 U/mL G6PDH (Sigma-aldrich, Cat #G6378). The substrate mix was 0.05× Solution A, 0.01× Solution B, 50 mM Potassium Phosphate, 0.01 mM BOMCC/0.01 mM EOMCC/0.001 mM DBOMF. […] The data were analyzed and processed using GraphPad Prism 6 software to obtain IC50 values.

Setting [3] is: 72 h, MIA Paca-2 cells, 3 days, Cell Titer-Glo.

The structures appear in SMILES notation. pIC50: −log10 of the molar value. Like-named read-outs stand apart in the source and are kept apart here.

Sequence of CYP2C9 (P11712 whole entry, canonical isoform): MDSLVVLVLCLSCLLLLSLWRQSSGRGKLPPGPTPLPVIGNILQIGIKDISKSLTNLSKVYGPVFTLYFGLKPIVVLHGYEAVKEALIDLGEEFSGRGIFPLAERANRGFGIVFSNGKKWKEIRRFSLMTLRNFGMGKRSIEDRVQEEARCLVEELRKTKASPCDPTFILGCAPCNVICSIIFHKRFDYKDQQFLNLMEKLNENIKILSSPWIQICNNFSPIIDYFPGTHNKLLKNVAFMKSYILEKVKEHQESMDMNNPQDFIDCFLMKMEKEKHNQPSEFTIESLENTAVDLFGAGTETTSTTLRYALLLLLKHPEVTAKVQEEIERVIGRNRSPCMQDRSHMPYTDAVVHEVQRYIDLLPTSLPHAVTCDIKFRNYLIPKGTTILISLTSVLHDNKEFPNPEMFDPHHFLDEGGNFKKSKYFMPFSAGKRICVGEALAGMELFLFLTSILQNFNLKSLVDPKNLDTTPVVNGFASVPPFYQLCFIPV
T1 sequence (P30291 whole entry): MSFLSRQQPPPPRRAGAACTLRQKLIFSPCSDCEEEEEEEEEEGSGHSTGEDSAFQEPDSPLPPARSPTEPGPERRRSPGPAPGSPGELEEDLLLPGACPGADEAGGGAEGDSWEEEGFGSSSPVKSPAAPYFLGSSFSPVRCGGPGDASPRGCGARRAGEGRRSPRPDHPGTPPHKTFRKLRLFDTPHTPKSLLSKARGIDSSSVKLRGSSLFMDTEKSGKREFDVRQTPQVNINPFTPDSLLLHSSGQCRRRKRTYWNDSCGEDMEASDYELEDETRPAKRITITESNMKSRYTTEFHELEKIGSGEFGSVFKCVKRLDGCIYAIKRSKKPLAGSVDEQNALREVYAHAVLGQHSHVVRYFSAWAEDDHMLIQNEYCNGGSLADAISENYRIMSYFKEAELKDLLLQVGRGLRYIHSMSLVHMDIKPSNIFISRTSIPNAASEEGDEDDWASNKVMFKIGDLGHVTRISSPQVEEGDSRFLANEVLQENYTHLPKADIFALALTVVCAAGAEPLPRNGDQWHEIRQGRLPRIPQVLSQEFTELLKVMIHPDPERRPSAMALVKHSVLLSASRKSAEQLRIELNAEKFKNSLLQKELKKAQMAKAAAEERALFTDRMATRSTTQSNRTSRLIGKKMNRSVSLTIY

One may read the pIC50 as −log10 of the IC50, conventionally taken in molar units. For the molecule `C=CCn1c(=O)c2cnc(Nc3ccc(N4CCN(C)CC4)cc3)nc2n1-c1cccc(C(C)(C)O)n1` [AZD-1775, reference compound], the negative-log IC50 (pIC50) with MIA Paca-2 cells (setting [3]) was 6.00 to 7.00. The fraction unbound at 5 h, 1 µM in series [1] was 0.087; in series [2] it was 0.374.

On to `CN1CCN(c2ccc(Nc3ncc4cnn(-c5cccc(N=S(C)(C)=O)n5)c4n3)cc2)CC1` [Compound 1], for which the negative logarithm of the IC50 (pIC50) was 8.00 to 9.00 on Wee1 protein and 6.00 to 7.00 with MIA Paca-2 cells (MIA PaCa-2, 72 h). For the same molecule, the values for the fraction unbound at 5 h, 1 µM in series [1] and in series [2] were 0.226 and 0.404, respectively. For the same molecule, the inhibition at 30 min, 1 µM on CYP2C9 is 7.5%. Moreover, the inhibition at 30 min, 10 µM at CYP2C9 was found to be 18.6%.

Consider `CN1CCN(c2ccc(Nc3ncc4cnn(-c5cccc(C(C)(C)O)n5)c4n3)cc2)CC1` [Compound 2], for which the negative logarithm of the IC50 (pIC50) on Wee1 protein is 7.00 to 8.00. Further, on CYP2C9, the inhibition at 30 min, 1 µM was -10.6% and the inhibition at 30 min, 10 µM was -16%.

With `CS(C)(=O)=Nc1cccc(-n2ncc3cnc(Nc4ccc(N5CCOCC5)cc4)nc32)n1` [Compound 6], the pIC50 at Wee1 protein is 7.00 to 8.00. At CYP2C9, the inhibition at 30 min, 1 µM was found to be 15.3% and the inhibition at 30 min, 10 µM was 13.1%.

Turning to `Cc1cc(Nc2ncc3cnn(-c4cccc(N=S(C)(C)=O)n4)c3n2)ccc1N1CCC(N(C)C)CC1` [Compound 14], the pIC50 was 8.00 to 9.00 on Wee1 protein and more than 7.00 with MIA Paca-2 cells (setting [3]). For the same molecule, the fraction unbound at 5 h, 1 µM in series [1] was 0.138; in series [2], 0.246.

In the case of `Cc1cc(Nc2ncc3cnn(-c4cccc(N=S(C)(C)=O)n4)c3n2)ccc1N1CCN(C)CC1` [Compound 16], the pIC50 at Wee1 protein is 8.00 to 9.00; with MIA Paca-2 cells (setting [3]), 6.00 to 7.00. For the same molecule, the fraction unbound at 5 h, 1 µM in series [1] was 0.092; in series [2], 0.179.
